Assay results published in patent publication EP0155244A2, “1-Ethyl-6-fluoro-7-(1H-pirrol-1-yl)-1,4-dihydro-4-oxoquinoline-3-carboxylic acid: preparation and antimicrobial activities” (priority 1985, dated 1985).
Values after ≈ are worked out from the molar mass of the structure shown. Where two headings read alike, the source gives them in different places.

Key:
Escherichia coli = experiment: In vitro antibacterial activity, M.I.C. by serial twofold dilution method on Mueller-Hinton agar; type: cell-based; details: E.Coli, 20 strains, pH 7.2, reading 18 h after incubation at 37°C; for MIC: Escherichia coli
Procedure: (§1) Derivatives (1) and (9) were tested for the in vitro antibacterial activities against Gram-positive and Gram-negative bacteria.Nalidixic acid,pipemidic acid,- piromidic acid and enoxacin were used as positive controls for antibacterial activities.
(§2) Minimum inhibitory concentrations (M.I.C.s) were determined using the serial twolfold dilution method; lectures were performed after incubation at 37° for 18 hours.
(§3) For the experiments the substances were dissolved in NaOH 0.1 N(10 mg/ml);further dilutions in the test medium furnished the required concentrations, generally in the range from 0. 05µg/ml to 100 µg/ml.
(§4) The cultures were obtained on B.H.I. (B.B.L.) after 18 hours incubation at 37°.Tests were carried out using Mueller-Hinton agar (B.B.L.) and inocula were 10^4 bacteria.
(§5) Media M.I.C. values nX (c at least 200 max µg/ml) were calculated by the equation [formula] where si is the number of sensitive strains at the given concentration ci and st is the whole number of the sensitive strains.
(§6) Strains with M.I.C.>200µg/ml are regarded as resistant (R) and are expressed in percentage (%) by the equation : [formula] where N is the whole number of tested strains and N is t s the number of sensitive strains.
(§7) The following species of bacteria freshly isolated from various clinical specimens were tested: 16 strains of […], 10 strains of Staphylococcus spp, 15 strains of Streptococcus ovalis,3 strains of Streptococcus spp, 18 strains of Klebsiella pneumoniae,20 strains of Escherichia coli,ll strains of Salmonella spp (3 S.typhi,l S.paratyphi A,S.paratyphi B, 4 S enteritidis, 1 S.wien and S.infantis,42 strains of Proteus spp (28 P.mirabilis, 8 P.vulgaris,3 P.rettgeri,2 P.morganii and 1 Providencia ) and 8 strains of Pseudomonas aeruginosa.

Klebsiella pneumoniae = experiment: as above; type: cell-based; details: 18 strains, pH 7.2, reading 18 h after incubation at 37°C
Procedure: as §1, §2, §3, §4, §5, §6, §7

Proteus spp = experiment: as above; type: cell-based; details: Proteus spp, 42 strains, pH 7.2, reading 18 h after incubation at 37°C
Procedure: as §1, §2, §3, §4, §5, §6, §7

Pseudomonas aeruginosa = experiment: as above; type: cell-based; details: Pseudomonas aeruginosa, 8 strains, pH 7.2, reading 18 h after incubation at 37°C
Procedure: as §1, §2, §3, §4, §5, §6, §7

Salmonella spp = experiment: as above; type: cell-based; details: 11 strains, pH 7.2, reading 18 h after incubation at 37°C
Procedure: as §1, §2, §3, §4, §5, §6, §7

Staphylococcus pyogenes = experiment: as above; type: cell-based; details: 16 strains, pH 7.2, reading 18 h after incubation at 37°C; for MIC: Staphylococcus aureus
Procedure: as §1, §2, §3, §4, §5, §6, §7

Staphylococcus spp = experiment: as above; type: cell-based; details: 10 strains, pH 7.2, reading 18 h after incubation at 37°C
Procedure: as §1, §2, §3, §4, §5, §6, §7

Streptococcus ovalis = experiment: as above; type: cell-based; details: 15 strains, pH 7.2, reading 18 h after incubation at 37°C
Procedure: as §1, §2, §3, §4, §5, §6, §7

Streptococcus spp = experiment: as above; type: cell-based; details: 3 strains, pH 7.2, reading 18 h after incubation at 37°C
Procedure: as §1, §2, §3, §4, §5, §6, §7

Gram-positive bacteria = experiment: In vitro antibacterial activity, summary for Gram-positive bacteria; type: cell-based, Staphylococcus and Streptococcus
Procedure: as §1, §2, §3, §4, §5, §6, §7

Enterobacteriaceae = experiment: In vitro antibacterial activity, summary for Enterobacteriaceae; type: cell-based
Procedure: as §1, §2, §3, §4, §5
Strains with M.I.C.>200µg/ml are regarded as resistant (R) and are expressed in percentage (%) by the equation : [formula] where N is the whole number of tested strains and N is t s the number of sensitive strains. […]

[1] = read-out: nX̄ = MIC mean values of sensitive strains

| Structure (SMILES) | MIC (Escherichia coli; [1]) | MIC (Klebsiella pneumoniae; [1]) | MIC (Klebsiella pneumoniae; read-out: range (MIC)) | R% = percentage of resistant strains (Proteus spp) | MIC (Proteus spp; [1]) | R% = percentage of resistant strains (Pseudomonas aeruginosa) | MIC (Pseudomonas aeruginosa; [1]) | MIC (Salmonella spp; [1]) | MIC (Salmonella spp; read-out: range (MIC)) | MIC (Staphylococcus pyogenes; [1]) | MIC (Staphylococcus pyogenes; read-out: range (MIC)) | MIC (Staphylococcus spp; [1]) | MIC (Staphylococcus spp; read-out: range (MIC)) | MIC (Streptococcus ovalis; [1]) | MIC (Streptococcus ovalis; read-out: range (MIC)) | MIC (Streptococcus spp; [1]) | MIC (Streptococcus spp; read-out: range (MIC)) | R% = percentage of resistant strains (Escherichia coli) | also measured |
| --- | --- | --- | --- | --- | --- | --- | --- | --- | --- | --- | --- | --- | --- | --- | --- | --- | --- | --- | --- |
| CCn1cc(C(=O)O)c(=O)c2cc(F)c(N3CCNCC3)cc21 [Norfloxacin, norfloxacin] | 4.47 µg/mL (≈ 14 µM) | 1.93 µg/mL (≈ 6.04 µM) | 0.2 to 6.25 µg/mL (≈ 0.626 to 19.6 µM) | 0% | 8.1 µg/mL (≈ 25.4 µM) | 0% | 1.42 µg/mL (≈ 4.45 µM) | 2.66 µg/mL (≈ 8.33 µM) | 0.2 to 12.5 µg/mL (≈ 0.626 to 39.1 µM) | 8.64 µg/mL (≈ 27.1 µM) | 0.4 to 25 µg/mL (≈ 1.25 to 78.3 µM) | 4.79 µg/mL (≈ 15 µM) | 0.2 to 25 µg/mL (≈ 0.626 to 78.3 µM) | 17.2 µg/mL (≈ 53.9 µM) | 0.8 to 100 µg/mL (≈ 2.51 to 313 µM) | 3.6 µg/mL (≈ 11.3 µM) | 1.56 to 6.25 µg/mL (≈ 4.89 to 19.6 µM) |  | MIC (Escherichia coli; read-out: range (MIC)): 0.2 to 25 µg/mL (≈ 0.626 to 78.3 µM); MIC (Proteus spp; read-out: range (MIC)): 0.2 to 100 µg/mL (≈ 0.626 to 313 µM); MIC (Pseudomonas aeruginosa; read-out: range (MIC)): 0.4 to 3.12 µg/mL (≈ 1.25 to 9.77 µM) |
| CCn1cc(C(=O)O)c(=O)c2cc(F)c(N3CCCC3)cc21 [Acid (9), 1-Ethyl-6-fluoro-1,4-dihydro-4-oxo-7-(pyrrolidin-1-yl) quinoline-3-carboxylic acid] | 3.83 µg/mL (≈ 12.6 µM) | 12.7 µg/mL (≈ 41.6 µM) | 3.12 to 25 µg/mL (≈ 10.3 to 82.2 µM) | 7% | 4.76 µg/mL (≈ 15.6 µM) | 12.5% | 9.87 µg/mL (≈ 32.4 µM) | 2.78 µg/mL (≈ 9.14 µM) | 0.2 to 6.25 µg/mL (≈ 0.657 to 20.5 µM) | 5.95 µg/mL (≈ 19.6 µM) | 0.4 to 25 µg/mL (≈ 1.31 to 82.2 µM) | 3.98 µg/mL (≈ 13.1 µM) | 0.8 to 6.25 µg/mL (≈ 2.63 to 20.5 µM) | 6.2 µg/mL (≈ 20.4 µM) | 3.12 to 25 µg/mL (≈ 10.3 to 82.2 µM) | 2.2 µg/mL (≈ 7.23 µM) | 0.4 to 3.12 µg/mL (≈ 1.31 to 10.3 µM) | 10% | R% (resistant strains) (Gram-positive bacteria): 0%; R% (resistant strains) (Enterobacteriaceae): 0% |
| CCn1cc(C(=O)O)c(=O)c2cnc(N3CCCC3)nc21 [Piromidic acid, piromidic acid] | 44.3 µg/mL (≈ 154 µM) |  |  | 76% | 60 µg/mL (≈ 208 µM) | 50% | 38.7 µg/mL (≈ 134 µM) | 60.9 µg/mL (≈ 211 µM) |  | 11.2 µg/mL (≈ 38.8 µM) |  | 39.1 µg/mL (≈ 135 µM) |  | 100 µg/mL (≈ 347 µM) |  | 10.4 µg/mL (≈ 36.1 µM) | 6.25 to 12.5 µg/mL (≈ 21.7 to 43.4 µM) | 45% | R% = percentage of resistant strains (Klebsiella pneumoniae): 61%; R% = percentage of resistant strains (Salmonella spp): 36%; R% = percentage of resistant strains (Staphylococcus pyogenes): 69%; R% = percentage of resistant strains (Staphylococcus spp): 60%; R% = percentage of resistant strains (Streptococcus ovalis): 87% |
